For data set [1], the system named is patients with chronic pain. Conditions: average of eight patients.
For data set [2], the system named is patients with chronic pain.
Data set [3] has as its target T1, N-methyl-D-aspartate (NMDA) receptor (Rattus norvegicus, UniProt P35439).
T1 construct: N-methyl-D-aspartate (NMDA) receptor in rat forebrain and spinal cord
Conditions: cited from earlier work.

Data set [4] has as its system subjects with major depression. Conditions: single dose, 8 subjects; cited from earlier work.
The subject of data set [5] is relatively refractory population with major depression. Conditions: single dose; cited from earlier work.
In data set [6] the test system is male Wistar rats. Conditions: single dose; cited from earlier work.
Setting [7] is: day 12 of d-methadone 40 mg every 12 hours.
[8] abbreviates: 8 patients that completed and 1 removed, 40 mg PO q12 hr.

In the case of `CCC(=O)C(C[C@H](C)N(C)C)(c1ccccc1)c1ccccc1` [d-methadone], in data set [1] (baseline (day 1)), the “Anxiety, Baseline, average score” value was determined as 2.5; the “Drowsiness, Baseline, average score” value is 4.1; the “Pain, Baseline, average score” value was determined as 4.1; the “Tiredness, Baseline, average score” value was found to be 5.9. In addition, in data set [1] (setting [7]), the “Anxiety, Day 12, average score” value amounted to 1.5; the “Drowsiness, Day 12, average score” value is 2.9; the “Pain, Day 12, average score” value is recorded as 4.1; the “Tiredness, Day 12, average score” value is 3.6. In addition, the Tolerability entry in data set [2] (40 mg PO Q 12 hours for 12 days, patients with chronic pain and multiple co morbidities) is recorded as “well tolerated”. In data set [2] (setting [8]), the “Back pain: # of patients” value is 1, the “Headache (first line): # of patients” value is recorded as 1, the “Headache (second line): # of patients” value was 1 and the “Somnolence (Neurology): # of patients” value was determined as 2. In data set [2] (setting [8]), the “Tremor (Neurology): # of patients” value amounted to 1. Further, in data set [2] (CTCAE v3.0), the “Back pain: Attribution” value is reported as 3, the “Back pain: Grade (1-5)” value is listed as 1, the “Headache (first line): Attribution” value is 3 and the “Headache (first line): Grade (1-5)” value is recorded as 1. In addition, in data set [2] (CTCAE v3.0), the “Headache (second line): Attribution” value was 4, the “Headache (second line): Grade (1-5)” value amounted to 1, the “Somnolence (Neurology): Attribution” value is listed as 3 and the “Somnolence (Neurology): Grade (1-5)” value was determined as 2. Further, in data set [2] (CTCAE v3.0), the “Tremor (Neurology): Attribution” value turned out to be 3 and the “Tremor (Neurology): Grade (1-5)” value amounted to 1. In data set [2] (very sick patients with severe cancer pain), the “Patients' perception of analgesia” value is recorded as “recognized it as an effective analgesic”. Besides, the NMDA receptor antagonism entry in data set [3] was “NMDA antagonists”.

As for `CNC1(c2ccccc2Cl)CCCCC1=O` (stereo not shown) [ketamine], in data set [4], the Antidepressant effect entry was “rapid and short-lived antidepressant effect”. Also, in data set [5], the “Duration of antidepressant response (relatively sustained)” value is 1 week and the “Time to antidepressant response (rapid)” value was 110 min. Moreover, in data set [6], the “Duration of interference with the induction of behavioral despair” value is reported as “up to 10 days”.

For the compound `CCC(=O)C(C[C@@H](C)N(C)C)(c1ccccc1)c1ccccc1` [l-methadone, reference compound], the NMDA receptor antagonism entry in data set [3] was “NMDA antagonists”.
